Data set [1] can be described thus: Selectivity index, ratio of IC50 for cytotoxicity against human HepG2 cells to IC50 for antiplasmodial activity against chloroquine-sensitive Plasmodium falciparum 3D7. Type of data set: toxicity, cell-based. To be noted: read-out: Ratio IC50.
The nature of data set [2]: Resistance index, ratio of IC50 for antiplasmodial activity against chloroquine-resistant Plasmodium falciparum 7G8 to IC50 for antiplasmodial activity against chloroquine-sensitive Plasmodium falciparum 3D7. Type of data set: functional.
A short description of data set [3]: Resistance index, ratio of IC50 for antiplasmodial activity against multidrug-resistant Plasmodium falciparum Dd2 to IC50 for antiplasmodial activity against chloroquine-sensitive Plasmodium falciparum 3D7. Type of data set: functional.
Data set [4] concerns Plasmodium falciparum. Description: Antiplasmodial activity against chloroquine-resistant Plasmodium falciparum 7G8 assessed as inhibition of parasite growth incubated for 3 days by HRP2-ELISA. Type of data set: functional, organism-based. Particulars: 7G8, 72 h.
The nature of data set [5]: Inhibition of hemin (unknown origin) assessed as inhibition of heme polymerization by measuring reduction in beta-hematin formation at 1 mM measured after 48 hrs by microplate reader assay.
Data set [6] has as its system Plasmodium falciparum. Nature of the data set: Antiplasmodial activity against multidrug-resistant Plasmodium falciparum K1 assessed as inhibition of parasite growth incubated for 3 days by HRP2-ELISA. Type of data set: functional, organism-based. To be noted: K1, 72 h. (In general: In an ELISA, binding on a coated surface is turned into a signal by an enzyme label.)

Data set [7] concerns Plasmodium falciparum. Description: Antiplasmodial activity against chloroquine-sensitive Plasmodium falciparum 3D7 assessed as inhibition of parasite growth incubated for 3 days by HRP2-ELISA. Type of data set: functional, organism-based. To be noted: 3D7, 72 h.
For data set [8], the system named is Plasmodium falciparum. Nature of the data set: Antiplasmodial activity against multidrug-resistant Plasmodium falciparum Dd2 assessed as inhibition of parasite growth incubated for 3 days by HRP2-ELISA. Type of data set: functional, organism-based. To be noted: Dd2, 72 h.
Data set [9] in a line: Cytotoxicity against human HepG2 cells assessed as cell growth inhibition incubated for 1 day by neutral red assay. Type of data set: toxicity, cell-based.
Data set [10] can be described thus: Resistance index, ratio of IC50 for antiplasmodial activity against multidrug-resistant Plasmodium falciparum K1 to IC50 for antiplasmodial activity against chloroquine-sensitive Plasmodium falciparum 3D7. Type of data set: functional.
Data set [11] relates to Plasmodium falciparum. Nature of the data set: Potency index, ratio of chloroquine IC50 to test compound IC50 for antiplasmodial activity against multidrug-resistant Plasmodium falciparum Dd2 assessed as inhibition of parasite growth incubated for 3 days by HRP2-ELISA. Type of data set: functional. To be noted: time 3 day.
Data set [12] deals with Plasmodium falciparum. Nature of the data set: Potency index, ratio of chloroquine IC50 to test compound IC50 for antiplasmodial activity against chloroquine-resistant Plasmodium falciparum 7G8 assessed as inhibition of parasite growth incubated for 3 days by HRP2-ELISA. Type of data set: functional. Particulars: time 3 day.
The subject of data set [13] is Plasmodium falciparum. Nature of the data set: Potency index, ratio of chloroquine IC50 to test compound IC50 for antiplasmodial activity against multidrug-resistant Plasmodium falciparum K1 assessed as inhibition of parasite growth incubated for 3 days by HRP2-ELISA. To be noted: time 3 day. Type of data set: functional.
The subject of data set [14] is Plasmodium falciparum. Nature of the data set: Potency index, ratio of chloroquine IC50 to test compound IC50 for antiplasmodial activity against chloroquine-sensitive Plasmodium falciparum 3D7 assessed as inhibition of parasite growth incubated for 3 days by HRP2-ELISA. Type of data set: functional. To be noted: time 3 day.

pIC50: −log10 of the molar value.

Broadly, the pIC50 is the negative decadic logarithm of the IC50, by convention in mol/L. In general, inhibition refers to the share of the control response that was lost under treatment. By IC50 is commonly meant the concentration needed to halve the response being measured. Turning to `Cc1nccc2c1[nH]c1cc(OCc3cn(-c4ccnc5cc(Cl)ccc45)nn3)ccc12`, the selectivity ratio in data set [1] was found to be 66.8. The values for the Ratio IC50 in data set [2], in data set [3] and in [10] were 2, 2.1 and 3.1, respectively. Further, the pIC50 was 6.71 in data set [4], 6.52 in data set [6], 7.02 in [7] and 6.69 in data set [8]. In [5], the inhibition was > 75%. Further, the IC50 at 1 day in data set [9] was 6400 nM.

For `COc1ccc2c3ccnc(C)c3n(Cc3cn(-c4ccnc5cc(Cl)ccc45)nn3)c2c1`, the selectivity ratio in data set [1] stood at 21.9. In addition, in [3], the Ratio IC50 was 2. Moreover, in [5], the inhibition was < 50%. Moreover, the pIC50 in data set [7] was 6.05; in data set [8], 5.74. Moreover, the IC50 at 1 day in data set [9] was found to be 19700 nM.

In the case of `Cc1nc(CNC(=O)CNc2ccnc3cc(Cl)ccc23)cc2c1[nH]c1ccccc12`, the selectivity ratio in data set [1] was 1430. In addition, the Ratio IC50 in data set [2] is 2.1; in [3] it was 3.5; in data set [10], 3.7. Also, the pIC50 is 7.55 in data set [4], 7.31 in data set [6], 7.89 in data set [7] and 7.34 in data set [8]. Also, in data set [5], the inhibition was < 50%. Besides, the IC50 at 1 day in data set [9] was 18600 nM.

For the compound `COc1ccc2c(c1)[nH]c1c(C)nccc12` [HARMINE], the IC50 at 1 day in [9] was > 250000 nM.

In the case of `Cc1nccc2c1[nH]c1cc(OCCNC(=O)CNc3ccnc4cc(Cl)ccc34)ccc12`, in [1], the selectivity ratio came out at 68.1. Besides, the Ratio IC50 in data set [3] was 1.3. Further, the inhibition in [5] turned out to be 50%. For the same compound, the pIC50 in data set [7] is 6.63; in data set [8], 6.51. Moreover, the IC50 at 1 day in data set [9] is 15900 nM.

Turning to `Cc1nccc2c1[nH]c1ccc(OCCNC(=O)CNc3ccnc4cc(Cl)ccc34)cc12`, in data set [1], the selectivity ratio is > 66. In [3], the Ratio IC50 turned out to be 1.7. For the same compound, the inhibition in data set [5] is < 50%. For the same compound, the pIC50 was 6.52 in data set [7] and 6.27 in data set [8]. Moreover, the IC50 at 1 day in data set [9] was > 20000 nM.

Regarding `Cc1nc(Cn2cc(COc3ccnc4cc(Cl)ccc34)nn2)cc2c1[nH]c1ccccc12`, in data set [1], the selectivity ratio is > 9.22. Further, in data set [3], the Ratio IC50 is 0.4. Moreover, in data set [5], the inhibition was 50%. Further, the pIC50 in data set [7] is 4.96; in [8], 5.27. Further, the IC50 at 1 day in data set [9] was > 100000 nM.

Take `Cc1nccc2c1[nH]c1ccc(OCc3cn(CCNc4ccnc5cc(Cl)ccc45)nn3)cc12`: the selectivity ratio in [1] is 228. Further, the Ratio IC50 was determined as 2.1 in data set [2], 2.4 in data set [3] and 2.1 in data set [10]. Moreover, the pIC50 in data set [4] was 6.84; in data set [6], 6.85; in data set [7], 7.18; in data set [8], 6.79. The inhibition in [5] is > 75%. Besides, the IC50 at 1 day in [9] amounted to 15000 nM.

With `Cc1nccc2c1[nH]c1ccc(OCc3cn(-c4ccnc5cc(Cl)ccc45)nn3)cc12`, the selectivity ratio in data set [1] came to 1.5. The Ratio IC50 in data set [3] stood at 1.9. For the same compound, the inhibition in [5] was > 75%. In addition, the pIC50 was 5.44 in [7] and 5.15 in data set [8]. For the same compound, the IC50 at 1 day in data set [9] was 5500 nM.

Regarding `Cc1nccc2c1[nH]c1cc(OCc3cn(CCNc4ccnc5cc(Cl)ccc45)nn3)ccc12`, in data set [1], the selectivity ratio came to 110. Moreover, the results for the Ratio IC50 in data set [2], in [3] and in data set [10] were 0.7, 1.3 and 0.5, respectively. The pIC50 in [4] is 7.35; in data set [6], 7.47; in data set [7], 7.24; in [8], 7.12. The inhibition in [5] is > 75%. Besides, the IC50 at 1 day in [9] is 6300 nM.

On to `COc1ccc2c3ccnc(C)c3n(Cc3cn(CCNc4ccnc5cc(Cl)ccc45)nn3)c2c1`, for which, in [1], the selectivity ratio was 829. For the same compound, the pIC50 was 7.54 in data set [4], 6.79 in data set [6], 7.94 in [7] and 6.69 in data set [8]. In addition, in data set [5], the inhibition worked out at 50%. Also, in data set [9], the IC50 at 1 day was determined as 14000 nM.

In the case of `CCN(CC)CCCC(C)Nc1ccnc2cc(Cl)ccc12` (configuration not stated), in data set [5], the inhibition is > 75%.

With `COc1ccc2c3ccnc(C)c3n(CCC(=O)NCCCCNc3ccnc4cc(Cl)ccc34)c2c1`, the selectivity ratio in data set [1] is > 723. Further, the inhibition in data set [5] was < 50%. Besides, the IC50 at 1 day in data set [9] was > 25000 nM.

Turning to `Clc1ccc2c(OCc3cn(Cc4nccc5c4[nH]c4ccccc45)nn3)ccnc2c1`, in data set [1], the selectivity ratio is > 0.9. The inhibition in data set [5] was < 50%. Also, the pIC50 was < 4.55 in data set [7] and < 4.56 in data set [8]. In addition, in data set [9], the IC50 at 1 day is > 25000 nM.

In the case of `COc1ccc2c3ccnc(C)c3n(CCNC(=O)CNc3ccnc4cc(Cl)ccc34)c2c1`, the “Ratio IC50” value in data set [11] came out at 22.5; in data set [12], 29.8; in data set [13] it was 15.9; in [14], 5.5. For the same compound, the selectivity ratio in [1] worked out at 4450. For the same compound, the pIC50 was 8.13 in data set [4], 7.61 in data set [6], 8.70 in [7] and 7.79 in data set [8]. Moreover, the inhibition in [5] stood at 50%. The IC50 at 1 day in data set [9] stood at 8900 nM.

Regarding `O=C(CNc1ccnc2cc(Cl)ccc12)NCc1nccc2c1[nH]c1ccccc12`, the selectivity ratio in data set [1] was 144. In data set [3], the Ratio IC50 was determined as 3.1. Further, the inhibition in [5] is < 50%. Besides, the pIC50 in [7] is 7.27; in [8], 6.77. Moreover, the IC50 at 1 day in data set [9] came out at 7800 nM.

Take `COc1ccc2c3ccnc(C)c3n(CCC(=O)NCCNc3ccnc4cc(Cl)ccc34)c2c1`: the selectivity ratio in [1] stood at 795. Besides, the inhibition in data set [5] is < 50%. For the same compound, the IC50 at 1 day in data set [9] turned out to be 12800 nM.
